Experiment: in vitro
Details: human, hela cells, % viability

| SMILES | viability at 28.5 h, 10 µM |
| --- | --- |
| O=C1CCC(C(=O)N2CCCC(c3cc4ccccc4cn3)C2)CC1 (stereo not shown) [CBK284989] | 102% |
| c1cc(OCCN2CCCC2)c2cc[nH]c2c1 [CBK083478] | 101% |
| CC(=O)c1ccc(-c2nc(-c3occc3C=O)cnc2N)cc1 [CBK064081] | 89.9% |
| COc1ccnc(Cn2ncc(N3CCCC3)cc2=O)c1OC [CBK306672] | 82.7% |
| Cc1ccc(S(=O)(=O)N/N=C/C=C/c2ccc(N(C)C)cc2)cc1 [CBK265078] | 99.7% |
| C=CCn1c(SCC(=O)Nc2nc3ccc(OCC)cc3s2)nc2cc(C(=O)O)ccc2c1=O [CBK297520] | 113% |
| COCCn1c(=O)[nH]c2ncc(-c3ccc4c(c3)OCO4)nc21 [CBK064164] | 95.8% |
| O=C(CCc1cccnc1)NC1CCCC1 [CBK200239] | 97.9% |
| Cc1[nH]c2ccc(F)cc2c1CC(=O)N(C)CCN1CCCCC1 [CBK282748] | 84.3% |
| COCCNC(=O)NCCCn1c(-c2ccncc2)nc2cccnc21 [CBK288581] | 98.6% |
| CC(C)(C)OC(=O)N1CCN(Cc2ccc(N)c3ccccc23)CC1 [CBK084530] | 109% |
| CC1CCCN(CC(O)c2ccc3c(c2)CC(C)N3C(=O)C2CC2)C1 (stereo not shown) [CBK282125] | 99.2% |
| COc1cccc(CNCC2CCCO2)c1OCc1ccccc1 (stereo not shown) [CBK269798C] | 105% |
| CN(C)c1ccc(-c2cncc(NCc3ccc4c(c3)OCO4)n2)cc1 [CBK037190] | 108% |
| CCCCCOc1ccc(Nc2ccc(-c3cc4ccccc4o3)cn2)cc1 [CBK036828] | 93.6% |
| COc1ccc(CNC(=O)CSc2nnc(-c3ccncc3)n2C)cc1 [CBK266613] | 95% |
| COCCNC(=O)CSc1cc(Cl)nc(Cl)c1 [CBK020796] | 88.3% |
| Cc1[nH]nc(O)c1C(c1ccc(OC(=O)c2ccc(F)cc2)cc1)c1c(O)n[nH]c1C [CBK264816] | 96.8% |
| CCOC(=O)N1CCC(NC(=O)N2CCN(c3ccccc3)CC2)CC1 [CBK155210] | 113% |
| COc1ccnc(N2CCN(C(=O)c3cc(C)nn3C)CC2)n1 [CBK305967] | 83.7% |
| OC(COc1cccc2ccccc12)CN1CCN(C(c2ccccc2)c2ccccc2)CC1 (stereo not shown) [CBK007591] | 93.1% |
| N#CCn1nnc(-c2ccc3c(c2)OCO3)n1 [CBK062663] | 98.7% |

| SMILES | viability at 28.5 h, 10 µM |
| --- | --- |
| CC1CCCCN1S(=O)(=O)c1ccc(NC(=O)CCn2cnc3ccccc3c2=O)cc1 (stereo not shown) [CBK268495] | 95.5% |
| c1ccc(C(Oc2nccnc2-c2ccc3c(c2)OCO3)c2ccccc2)cc1 [CBK106707] | 103% |
| CCOC(=O)c1c(NC(=O)CCN2C(=O)c3cccc4cccc(c34)C2=O)sc2c1CCC2 [CBK262982] | 111% |
| Cc1ccc(-c2ccnc3[nH]c(=O)[nH]c(=O)c23)cc1 [CBK287978] | 89.7% |
| COc1ccc([C@@]23CC[C@@H](NC(=O)Nc4ccccc4C(F)(F)F)C[C@@H]2N(C)CC3)cc1OC [CBK036466T] | 106% |
| CCCC(=O)Nc1ccc(-c2csc(NC(=O)C3CCCO3)n2)cc1 (stereo not shown) [CBK305854] | 77.8% |
| O=C(NC[C@H]1C[C@@H]2CC[N@]1C[C@@H]2CN1CCN(c2ccccn2)CC1)Nc1ccsc1 [CBK289113] | 101% |
| Cc1cc(C)c(C)c(S(=O)(=O)NCCOCCO)c1C [CBK269153] | 88.6% |
| Cc1cccc(C(=O)Nc2ncn(CC(=O)N3CCCCCC3)n2)n1 [CBK304954] | 86.6% |
| Cc1nnc(SCC(=O)Nc2cc(C(F)(F)F)ccc2N2CCOCC2)o1 [CBK266815] | 109% |
| N#Cc1ccccc1NC(=O)CSc1nc2cc(Cl)ccc2[nH]1 [CBK270019] | 99.4% |
| CC1=NN(c2ccc([N+](=O)[O-])cc2)C(=O)/C1=C/NCCN1CCN(C(=O)c2ccc(F)cc2)CC1 [CBK262920] | 95.1% |
| O=C(c1ccncc1)N1CCc2ccccc21 [CBK200280] | 93.7% |
| O=C(O)C1Cc2c([nH]c3ccccc23)C(c2cc(Br)ccc2O)N1 (stereo not shown) [CBK260946] | 88.1% |
| Nc1ncn(Cc2ccccc2)c2nc(SCC(=O)O)nc1-2 [CBK267027] | 99.2% |
| Cc1cc(N2CCN(C(=O)Cc3cccs3)CC2)nc(C(C)C)n1 [CBK305562] | 88.1% |
| Nc1nnc(SCc2nc3ccccc3n2Cc2ccccc2)s1 [CBK264649] | 92.1% |
| CO/N=C(/C(=O)O)c1cn2cc(Br)ccc2n1 [CBK260925G] | 87.2% |
| O=C(CC(CN1CCCN(c2ncccn2)CC1)C(=O)O)NCc1ccccc1 (stereo not shown) [CBK286856] | 87.2% |
| O=C(Cc1ccc2c(c1)CCCO2)Nc1c(OCCn2cccn2)ccc2ccccc12 [CBK285679] | 96.9% |
| Cc1ccc(C2=CCN(CC(=O)NC3CCCC3)CC2)o1 [CBK283605] | 92% |
| COc1ccc2[nH]c([C@H]3CCN(S(C)(=O)=O)C3)nc2c1 [CBK289377] | 111% |

| SMILES | viability at 28.5 h, 10 µM |
| --- | --- |
| CN1CCCN(c2nc(-c3cccs3)cn3ccnc23)CC1 [CBK066652] | 89.5% |
| CN(C)C(CNC(=O)Nc1cccc(C(=O)NC2CC2)c1)c1cccs1 (stereo not shown) [CBK305565] | 115% |
| O=C1CCCN1CCCNC(=O)N1CCCC(CO)C1 (stereo not shown) [CBK156063] | 94.3% |
| N#Cc1cnn2c(O)cc(Cc3ccccc3)nc12 [CBK287942] | 110% |
| O=C(NCCn1nc2c(cc1=O)CCCCC2)c1ccc(F)cc1 [CBK283279] | 93.3% |
| O=C(COC(=O)c1ccc2c(c1)C(=O)N(c1cccc(Cl)c1)C2=O)c1ccc(Br)cc1 [CBK262324] | 94% |
| CCN(CC)C(=O)Cn1ncc2c3sc(C)cc3n(C)c2c1=O [CBK284156] | 92.9% |
| O=C(O)c1ccc(C2(c3ccc(C(=O)O)cc3)OC(=O)c3ccccc32)cc1 [CBK261150] | 98.2% |
| O=C(CSc1nnc2[nH]c(=O)ccn12)NCc1ccccc1Cl [CBK287684] | 95.1% |
| COc1cc(CN2CCN(c3ccccn3)CC2)ccc1OCc1ccccc1 [CBK261906] | 88.8% |
| CCN(CC)S(=O)(=O)c1cccc(-n2sc3ccccc3c2=O)c1 [CBK116501] | 96.2% |
| CCOC(=O)c1cccc(-c2cc3ccccc3o2)n1 [CBK149243] | 114% |
| CC1CCN(Cn2nc(COc3ccccc3)n(-c3ccccc3)c2=S)CC1 [CBK264247] | 97.3% |
| CCOC(=O)c1cccnc1-c1ccc(S(C)(=O)=O)cc1 [CBK149242] | 105% |
| CN(C)CCNC(=O)c1ccc(-c2ccccc2S(=O)(=O)Nc2ccc(C(=O)O)c(O)c2)cc1 [CBK174050] | 106% |
| Fc1ccccc1CSc1nc2ccc[nH]c-2n1 [CBK287883] | 91.2% |
| COc1cc(C2(O)CCN(Cc3ccccc3)C2)ccc1OCc1ccccc1 (stereo not shown) [CBK045620] | 95.9% |
| Cn1nc(C2CCN(Cc3ccccc3)CC2)c2cccnc21 [CBK285095] | 94.9% |
| COC(=O)CCc1ccc(S(=O)(=O)N2CCCN(Cc3ccc4c(c3)OCO4)CC2)cc1 [CBK063130] | 106% |
| Sc1nnc(-c2ccncc2)n1C1CCCCC1 [CBK288421] | 105% |
| COc1ccc2[nH]cc(CCNC(=O)c3cc(C)[nH]n3)c2c1 [CBK116206] | 89.8% |
| COc1ccc(OCC(O)CN2CCN(c3ccccn3)CC2)cc1 (stereo not shown) [CBK278239C] | 81.8% |

| SMILES | viability at 28.5 h, 10 µM |
| --- | --- |
| Cc1cnc(C)c(N2CCN(c3cc([C@H]4C[C@@H](N)C4)ncn3)CC2)n1 [CBK307118] | 88.7% |
| CCOc1ccc(N2C(=O)CC(N3CCN(c4ccc(C(=O)c5ccncc5)cc4)CC3)C2=O)cc1 (stereo not shown) [CBK269124] | 86.5% |
| COc1ccc2c(c1)CCN=C2C[C@H]1CN(C(=O)NC(C)C)CC[C@H]1CC(=O)O [CBK289156] | 90% |
| O=c1[nH]c(-c2ccccc2)nc2c1CN(Cc1cccs1)CC2 [CBK282330] | 87.1% |
| CN(C)c1ccc(C(=O)N2CC[C@@H](CC(=O)O)[C@@H](CC3=NCCc4ccccc43)C2)cc1 [CBK289159] | 94.8% |
| COc1cccc(CN(Cc2ccco2)Cc2[nH]cnc2C)c1 [CBK282495] | 81.4% |
| COc1ccc(-c2nc(O)cc(C(F)(F)F)n2)cc1 [CBK003515] | 86.3% |
| CN(C)[C@H]1CC[C@@H](Cc2ccccc2)C[C@@H]1NC(=O)c1ccc(Cl)c(Cl)c1 [CBK012488] | 97.3% |
| CN(C)CCCNc1ccc(-c2nnc(O)c3ccccc23)cc1[N+](=O)[O-] [CBK266200] | 100% |
| CCOc1ccc(NCCCCO)cc1 [CBK264386] | 92% |
| COc1ccc(CN(CCCN2CCOCC2)C(=O)NCCCN2CCCC2=O)cc1OC [CBK159180] | 93.2% |
| c1ccc(CCN2CCN(c3nccnc3OCC3COc4ccccc4O3)CC2)cc1 (stereo not shown) [CBK082794T] | 99.4% |
| CN1CCN(c2cncc(-c3ccccc3CO)n2)CC1 [CBK065302] | 91.8% |
| COc1ccc([N+](=O)[O-])cc1CSc1nnc(COc2ccccc2C)n1C [CBK265820] | 93% |
| COc1ccc2[nH]c3c(c2c1)CCNC31CCCN(Cc2ccc(OC(F)(F)F)cc2)C1 (stereo not shown) [CBK039387] | 113% |
| O=C(C1CCCCC1)N1CCC(n2c(=O)[nH]c3ccccc32)CC1 [CBK149703] | 92.8% |
| FC(F)(F)c1cccnc1OCCCc1ccncc1 [CBK115782] | 93.9% |
| O=C(NCc1ccccc1)c1c(O)c2ccccc2n(Cc2ccccc2)c1=O [CBK291174] | 91.6% |
| O=C(O)COc1c(-c2ccco2)oc2ccccc2c1=O [CBK269262] | 96.9% |
| CCCn1c(=O)c(Cc2ccccc2)c(O)c2ccccc21 [CBK291175] | 89.3% |
| Cc1ccc(NC(=O)c2nc(-c3ccc(C(=O)N4CCOCC4)cc3)cnc2N)c(O)c1 [CBK149152] | 44.3% |

Same assay, conditions: human, hela cells, % viability, bulk resorufin, single well

| SMILES | viability at 28.5 h, 10 µM |
| --- | --- |
| COc1ccc(N2C(=O)/C(=C/c3ccc(-c4cc(C(=O)O)ccc4Cl)o3)C(=O)NC2=S)cc1 [CBK263750] | 97.8% |

— article PMC12040169 (PLOS Biology, 2025)
